{"source": "ChEMBL document CHEMBL6114965", "about": "“Novel dual-targeting PROTAC degraders of GSK-3β and CDK5: A promising approach for pancreatic cancer treatment” (Bioorg Med Chem, 2025)", "key": {"Cytochrome P450 1A2": {"target": "T1, Cytochrome P450 1A2 (Homo sapiens, UniProt P05177)", "T1 sequence (P05177 whole entry)": "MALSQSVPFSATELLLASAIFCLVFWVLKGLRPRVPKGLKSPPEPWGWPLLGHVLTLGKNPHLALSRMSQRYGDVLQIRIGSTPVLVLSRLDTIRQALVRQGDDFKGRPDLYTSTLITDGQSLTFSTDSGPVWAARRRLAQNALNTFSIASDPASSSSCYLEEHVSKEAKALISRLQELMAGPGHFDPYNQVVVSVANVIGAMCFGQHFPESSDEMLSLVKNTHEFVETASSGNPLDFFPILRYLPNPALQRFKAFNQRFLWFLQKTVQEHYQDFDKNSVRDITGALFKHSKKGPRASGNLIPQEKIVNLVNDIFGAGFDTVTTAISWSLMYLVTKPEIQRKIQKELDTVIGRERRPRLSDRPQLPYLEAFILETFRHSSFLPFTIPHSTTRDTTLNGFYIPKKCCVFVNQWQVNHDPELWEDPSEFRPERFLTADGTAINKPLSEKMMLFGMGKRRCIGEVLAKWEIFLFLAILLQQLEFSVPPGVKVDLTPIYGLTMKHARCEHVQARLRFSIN", "assay": "Inhibition of CYP1A2 (unknown origin) using phenacetin as substrate […]", "format": "ADME"}, "[1]": {"assay": "Tmax in mouse at 5 mg/kg, iv", "format": "ADME, organism-based", "details": "in vivo"}, "Cytochrome P450 2B6": {"target": "T2, Cytochrome P450 2B6 (Homo sapiens, UniProt P20813)", "T2 sequence (P20813 whole entry)": "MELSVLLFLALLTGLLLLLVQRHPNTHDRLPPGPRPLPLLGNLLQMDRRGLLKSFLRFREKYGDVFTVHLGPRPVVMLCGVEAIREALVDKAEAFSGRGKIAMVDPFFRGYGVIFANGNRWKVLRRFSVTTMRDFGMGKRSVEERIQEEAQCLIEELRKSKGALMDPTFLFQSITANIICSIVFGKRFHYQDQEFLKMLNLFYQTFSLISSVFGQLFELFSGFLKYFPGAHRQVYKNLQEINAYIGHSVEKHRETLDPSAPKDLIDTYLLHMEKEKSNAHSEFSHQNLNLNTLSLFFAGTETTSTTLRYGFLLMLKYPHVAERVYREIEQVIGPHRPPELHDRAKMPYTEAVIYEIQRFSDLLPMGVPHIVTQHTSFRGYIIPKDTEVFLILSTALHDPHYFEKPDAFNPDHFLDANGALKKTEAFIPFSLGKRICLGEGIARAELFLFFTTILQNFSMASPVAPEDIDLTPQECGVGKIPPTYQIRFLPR", "assay": "Inhibition of CYP2B6 (unknown origin) using bupropion as substrate […]", "format": "ADME"}, "[2]": {"assay": "Half-life in mouse at 5 mg/kg, po", "format": "ADME, organism-based", "details": "in vivo"}, "[3]": {"assay": "Metabolic stability in pooled human liver microsomes assessed as half-life at 100 uM measured upto 120 mins by LC-MS/MS analysis", "format": "ADME, Microsome"}, "[4]": {"assay": "Cmax in mouse at 5 mg/kg, iv", "format": "ADME, organism-based", "details": "in vivo"}, "[5]": {"target": "T3, Protein cereblon/Glycogen synthase kinase-3 beta (Homo sapiens, UniProt P49841+Q96SW2)", "assay": "PROTAC activity at CRBN/GSK3beta in human PANC-1 cells assessed as induction of GSK3beta degradation by measuring maximal efficacy by target engagement binding based cell-ELISA relative to control"}, "[6]": {"assay": "Permeability of compound in PBS at pH 7.4 at 500 uM incubated for 4 hrs by UV spectrophotometry based PAMPA", "format": "ADME", "details": "read-out: permeability"}, "PANC-1": {"test_system": "PANC-1", "assay": "Antiproliferative activity against human PANC-1 cells assessed as inhibition of cell viability by MTT assay", "format": "functional, cell-based"}, "ASPC1": {"test_system": "ASPC1", "assay": "Antiproliferative activity against human ASPC1 cells assessed as inhibition of cell viability by MTT assay", "format": "functional, cell-based"}, "[7]": {"assay": "Half-life in mouse at 5 mg/kg, iv", "format": "ADME, organism-based", "details": "in vivo"}, "Cytochrome P450 3A4 [8]": {"target": "T4, Cytochrome P450 3A4 (Homo sapiens, UniProt P08684)", "T4 sequence (P08684 whole entry)": "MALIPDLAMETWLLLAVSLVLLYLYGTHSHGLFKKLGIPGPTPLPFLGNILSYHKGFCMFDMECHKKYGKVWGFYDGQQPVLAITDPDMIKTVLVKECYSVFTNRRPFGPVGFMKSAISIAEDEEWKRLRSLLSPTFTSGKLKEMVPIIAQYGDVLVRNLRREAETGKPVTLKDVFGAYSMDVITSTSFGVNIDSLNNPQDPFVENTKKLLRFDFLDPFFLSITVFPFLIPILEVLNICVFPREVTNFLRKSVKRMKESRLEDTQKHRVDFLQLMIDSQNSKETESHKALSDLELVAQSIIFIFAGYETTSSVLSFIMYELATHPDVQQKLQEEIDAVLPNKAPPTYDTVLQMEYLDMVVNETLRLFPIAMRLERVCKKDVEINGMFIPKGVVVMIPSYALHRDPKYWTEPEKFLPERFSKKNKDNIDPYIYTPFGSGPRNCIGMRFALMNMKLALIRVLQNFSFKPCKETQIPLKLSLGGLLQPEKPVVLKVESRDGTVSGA", "assay": "Inhibition of CYP3A4 (unknown origin) using midazolam as substrate […]", "format": "ADME"}, "Cytochrome P450 2C19": {"target": "Cytochrome P450 2C19 (Homo sapiens, UniProt P33261)", "sequence (P33261 whole entry)": "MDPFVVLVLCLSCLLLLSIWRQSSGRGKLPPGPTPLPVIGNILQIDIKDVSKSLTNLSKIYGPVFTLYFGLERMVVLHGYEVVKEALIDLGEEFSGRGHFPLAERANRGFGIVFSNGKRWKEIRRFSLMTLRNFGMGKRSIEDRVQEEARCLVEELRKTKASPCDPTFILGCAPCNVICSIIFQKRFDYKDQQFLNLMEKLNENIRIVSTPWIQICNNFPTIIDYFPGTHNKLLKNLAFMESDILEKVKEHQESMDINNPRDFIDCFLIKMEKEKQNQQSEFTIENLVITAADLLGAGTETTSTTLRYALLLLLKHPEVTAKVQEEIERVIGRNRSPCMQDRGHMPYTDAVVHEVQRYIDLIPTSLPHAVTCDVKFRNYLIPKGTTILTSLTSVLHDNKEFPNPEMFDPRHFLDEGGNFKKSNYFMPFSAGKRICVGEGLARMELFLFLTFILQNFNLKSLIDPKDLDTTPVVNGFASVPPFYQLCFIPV", "assay": "Inhibition of CYP2C19 (unknown origin) using s-mephenytoin as substrate […]", "format": "ADME"}, "[9]": {"assay": "Tmax in mouse at 5 mg/kg, po", "format": "ADME, organism-based", "details": "in vivo"}, "[10]": {"assay": "Bioavailability in mouse at 5 mg/kg, […]", "format": "ADME, organism-based", "details": "in vivo"}, "[11]": {"assay": "Cytotoxicity against human HepG2 cells", "format": "toxicity, cell-based"}, "[12]": {"assay": "AUC in mouse at 5 mg/kg, po", "format": "ADME, organism-based", "details": "in vivo"}, "Cytochrome P450 3A4 [13]": {"target": "T4, Cytochrome P450 3A4", "assay": "Inhibition of CYP3A4 (unknown origin) using testosterone as substrate […]", "format": "ADME"}, "[14]": {"target": "T5, Protein cereblon/Cyclin-dependent kinase 5 (Homo sapiens, UniProt Q00535+Q96SW2)", "assay": "PROTAC activity at CRBN/CDK5 in human PANC-1 cells assessed as induction of CDK5 degradation at 0.5 to 2.8 uM incubated for 10 hrs in presence of MG132 by Western blot analysis", "format": "cell-based", "details": "dose 0.5-2.8 µM"}, "BXPC-3": {"test_system": "BXPC-3", "assay": "Antiproliferative activity against human BXPC-3 cells assessed as inhibition of cell viability by MTT assay", "format": "functional, cell-based"}, "[15]": {"target": "T3, Protein cereblon/Glycogen synthase kinase-3 beta", "assay": "PROTAC activity at CRBN/GSK3beta in human PANC-1 cells assessed as induction of GSK3beta degradation by target engagement binding based cell-ELISA"}, "Cytochrome P450 2D6": {"target": "Cytochrome P450 2D6 (Homo sapiens, UniProt P10635)", "sequence (P10635 whole entry)": "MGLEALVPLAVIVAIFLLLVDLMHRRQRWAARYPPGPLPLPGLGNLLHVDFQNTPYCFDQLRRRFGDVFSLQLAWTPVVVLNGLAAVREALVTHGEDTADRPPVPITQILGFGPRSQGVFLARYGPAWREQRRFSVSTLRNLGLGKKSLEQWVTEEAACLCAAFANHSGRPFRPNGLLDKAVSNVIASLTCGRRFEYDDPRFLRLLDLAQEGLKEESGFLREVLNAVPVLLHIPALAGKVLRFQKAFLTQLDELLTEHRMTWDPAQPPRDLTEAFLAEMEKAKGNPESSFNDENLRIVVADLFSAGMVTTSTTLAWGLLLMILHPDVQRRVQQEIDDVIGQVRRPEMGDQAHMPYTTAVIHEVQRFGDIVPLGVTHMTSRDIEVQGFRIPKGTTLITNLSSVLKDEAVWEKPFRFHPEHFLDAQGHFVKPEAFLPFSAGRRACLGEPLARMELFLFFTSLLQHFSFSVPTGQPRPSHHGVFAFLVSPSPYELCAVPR", "assay": "Inhibition of CYP2D6 (unknown origin) using dextromethorphan as substrate […]", "format": "ADME"}, "[16]": {"target": "T5, Protein cereblon/Cyclin-dependent kinase 5", "assay": "PROTAC activity at CRBN/CDK5 in human PANC-1 cells assessed as induction of CDK5 degradation by target engagement binding based cell-ELISA"}, "[17]": {"target": "T3, Protein cereblon/Glycogen synthase kinase-3 beta", "assay": "PROTAC activity at CRBN/GSK3beta in human PANC-1 cells assessed as induction of GSK3beta degradation at 0.5 to 2.8 uM incubated for 10 hrs in presence of MG132 by Western blot analysis", "format": "cell-based", "details": "dose 0.5-2.8 µM"}, "[18]": {"assay": "Cytotoxicity against human A549 cells", "format": "toxicity, cell-based"}, "MIA PaCa-2": {"test_system": "MIA PaCa-2", "assay": "Antiproliferative activity against human MIA PaCa-2 cells assessed as inhibition of cell viability by MTT assay", "format": "functional, cell-based"}, "[19]": {"assay": "Oral bioavailability in mouse at 5 mg/kg", "format": "ADME, organism-based", "details": "in vivo"}, "[20]": {"assay": "Observed clearance in mouse at 5 mg/kg, po", "format": "ADME, organism-based", "details": "in vivo"}, "[21]": {"target": "T5, Protein cereblon/Cyclin-dependent kinase 5", "assay": "PROTAC activity at CRBN/CDK5 in human PANC-1 cells assessed as induction of CDK5 degradation at 1 to 2.8 uM incubated for 10 hrs by Western blot analysis", "format": "cell-based", "details": "dose 1-2.8 µM"}, "Cytochrome P450 2C9": {"target": "Cytochrome P450 2C9 (Homo sapiens, UniProt P11712)", "sequence (P11712 whole entry)": "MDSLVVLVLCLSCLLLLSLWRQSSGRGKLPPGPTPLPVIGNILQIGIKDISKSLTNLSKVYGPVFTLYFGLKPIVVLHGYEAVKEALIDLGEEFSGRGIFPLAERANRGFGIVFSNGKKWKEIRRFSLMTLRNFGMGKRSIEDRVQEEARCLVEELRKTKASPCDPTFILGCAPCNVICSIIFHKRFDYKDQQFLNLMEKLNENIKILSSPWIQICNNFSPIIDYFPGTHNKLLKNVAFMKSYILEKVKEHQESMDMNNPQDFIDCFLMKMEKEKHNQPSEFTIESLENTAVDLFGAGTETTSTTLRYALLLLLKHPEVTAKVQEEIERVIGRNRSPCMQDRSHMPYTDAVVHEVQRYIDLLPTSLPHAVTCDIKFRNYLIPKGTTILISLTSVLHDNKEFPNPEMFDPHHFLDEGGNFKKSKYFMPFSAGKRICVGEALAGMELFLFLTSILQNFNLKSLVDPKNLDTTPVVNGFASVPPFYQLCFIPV", "assay": "Inhibition of CYP2C9 (unknown origin) using diclofenac as substrate […]", "format": "ADME"}, "[22]": {"target": "T5, Protein cereblon/Cyclin-dependent kinase 5", "assay": "PROTAC activity at CRBN/CDK5 in human PANC-1 cells assessed as induction of CDK5 degradation by measuring maximal efficacy by target engagement binding based cell-ELISA relative to control"}, "[23]": {"assay": "AUC in mouse at 5 mg/kg, iv", "format": "ADME, organism-based", "details": "in vivo"}, "Cytochrome P450 2C8": {"target": "T6, Cytochrome P450 2C8 (Homo sapiens, UniProt P10632)", "T6 sequence (P10632 whole entry)": "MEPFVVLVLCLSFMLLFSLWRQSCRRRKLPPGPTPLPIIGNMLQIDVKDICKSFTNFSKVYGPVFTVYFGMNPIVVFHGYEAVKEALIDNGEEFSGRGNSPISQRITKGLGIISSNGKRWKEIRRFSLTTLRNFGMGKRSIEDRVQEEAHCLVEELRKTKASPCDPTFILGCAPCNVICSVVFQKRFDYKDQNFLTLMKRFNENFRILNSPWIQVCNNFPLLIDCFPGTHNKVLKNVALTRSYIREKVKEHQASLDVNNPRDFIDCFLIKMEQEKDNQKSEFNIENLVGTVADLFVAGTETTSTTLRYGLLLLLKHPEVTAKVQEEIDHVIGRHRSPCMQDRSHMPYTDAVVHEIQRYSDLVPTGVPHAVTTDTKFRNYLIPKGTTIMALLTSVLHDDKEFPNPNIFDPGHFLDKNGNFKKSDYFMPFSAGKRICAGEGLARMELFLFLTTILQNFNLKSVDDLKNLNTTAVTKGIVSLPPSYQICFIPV", "assay": "Inhibition of CYP2C8 (unknown origin) using amodiaquine as substrate […]", "format": "ADME"}, "[24]": {"target": "T3, Protein cereblon/Glycogen synthase kinase-3 beta", "assay": "PROTAC activity at CRBN/GSK3beta in human PANC-1 cells assessed as induction of GSK3beta degradation at 1 to 2.8 uM incubated for 10 hrs by Western blot analysis", "format": "cell-based", "details": "dose 1-2.8 µM"}, "[25]": {"assay": "Cmax in mouse at 5 mg/kg, po", "format": "ADME, organism-based", "details": "in vivo"}}, "note": "The source made the active and inactive calls. The rule behind the calls is not given here.", "data": [{"smiles": "O=C1CCC(N2C(=O)c3cccc(NCCCCCn4cc(CN5CCN(CCCn6cc(C7=C(c8c[nH]c9ccccc89)C(=O)NC7=O)c7ccccc76)CC5)nn4)c3C2=O)C(=O)N1", "note": "(stereo not given)", "values": [{"measurement": "IC50", "setting": "Cytochrome P450 1A2", "result": 55.2, "unit": "µM"}, {"measurement": "Tmax", "setting": "[1]", "result": 4, "unit": "h"}, {"measurement": "IC50", "setting": "Cytochrome P450 2B6", "result": 45.3, "unit": "µM"}, {"measurement": "half-life", "setting": "[2]", "result": 4, "unit": "h"}, {"measurement": "half-life at 100 µM", "setting": "[3]", "result": 0.934, "unit": "h"}, {"measurement": "Cmax", "setting": "[4]", "result": 961, "unit": "ng/mL"}, {"measurement": "Emax", "setting": "[5]", "result": 90, "unit": "%"}, {"measurement": "Papp at 4 h, 500 µM", "setting": "[6]", "result": 79.9, "unit": "×10⁻⁶ cm/s"}, {"measurement": "IC50", "setting": "PANC-1", "result": 1.81, "unit": "µM"}, {"measurement": "IC50", "setting": "ASPC1", "result": 1.96, "unit": "µM"}, {"measurement": "half-life", "setting": "[7]", "result": 6, "unit": "h"}, {"measurement": "IC50", "setting": "Cytochrome P450 3A4 [8]", "result": 39.2, "unit": "µM"}, {"measurement": "IC50", "setting": "Cytochrome P450 2C19", "result": 46.2, "unit": "µM"}, {"measurement": "Tmax", "setting": "[9]", "result": 2, "unit": "h"}, {"measurement": "bioavailability", "setting": "[10]", "result": 35, "unit": "%"}, {"measurement": "CC50", "setting": "[11]", "result": 9.05, "unit": "µM"}, {"measurement": "AUC", "setting": "[12]", "result": 1550, "unit": "ng·h/mL"}, {"measurement": "IC50", "setting": "Cytochrome P450 3A4 [13]", "result": 25.3, "unit": "µM"}, {"measurement": "Activity", "setting": "[14]", "result": "inactive"}, {"measurement": "IC50", "setting": "BXPC-3", "result": 2.95, "unit": "µM"}, {"measurement": "DC50", "setting": "[15]", "result": 0.042, "unit": "µM"}, {"measurement": "IC50", "setting": "Cytochrome P450 2D6", "result": 45.5, "unit": "µM"}, {"measurement": "DC50", "setting": "[16]", "result": 0.048, "unit": "µM"}, {"measurement": "Activity", "setting": "[17]", "result": "inactive"}, {"measurement": "CC50", "setting": "[18]", "result": 8.23, "unit": "µM"}, {"measurement": "IC50", "setting": "MIA PaCa-2", "result": 2.16, "unit": "µM"}, {"measurement": "F", "setting": "[19]", "result": 15, "unit": "%"}, {"measurement": "CL/F", "setting": "[20]", "result": 90, "unit": "mL/min/kg"}, {"measurement": "Activity", "setting": "[21]", "result": "Active"}, {"measurement": "IC50", "setting": "Cytochrome P450 2C9", "result": 33.3, "unit": "µM"}, {"measurement": "Emax", "setting": "[22]", "result": 88, "unit": "%"}, {"measurement": "AUC", "setting": "[23]", "result": 3700, "unit": "ng·h/mL"}, {"measurement": "IC50", "setting": "Cytochrome P450 2C8", "result": "> 100", "unit": "µM"}, {"measurement": "Activity", "setting": "[24]", "result": "Active"}, {"measurement": "Cmax", "setting": "[25]", "result": 761, "unit": "ng/mL"}]}]}
